# According to PubChem BioAssay (NCI):
#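 Here, GI50 denotes the concentration required for 50% inhibition of growth. TGI: concentration producing complete growth inhibition.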
# Assays:
# Experiment in all cases: NCI tumour cell line growth inhibition, 384-well format
# 786-0 renal = system: 786-0 renal
# A498 renal = system: A498 renal
# A549 NSCLC = system: A549 NSCLC
# ACHN renal = system: ACHN renal
# BT-549 breast = system: BT-549 breast
# CAKI-1 renal = system: CAKI-1 renal
# CCRF-CEM leukemia = system: CCRF-CEM leukemia
# COLO 205 colon = system: COLO 205 colon
# DU-145 prostate = system: DU-145 prostate
# EKVX NSCLC = system: EKVX NSCLC
# HCC-2998 colon = system: HCC-2998 colon
# HCT-116 colon = system: HCT-116 colon
# HCT-15 colon = system: HCT-15 colon
# HL-60(TB) leukemia = system: HL-60(TB) leukemia
# HOP-62 NSCLC = system: HOP-62 NSCLC
# HOP-92 NSCLC = system: HOP-92 NSCLC
# HS 578T breast = system: HS 578T breast
# HT29 colon = system: HT29 colon
# IGROV1 ovarian = system: IGROV1 ovarian
# K-562 leukemia = system: K-562 leukemia
# KM12 colon = system: KM12 colon
# LOX IMVI melanoma = system: LOX IMVI melanoma
# M14 melanoma = system: M14 melanoma
# MALME-3M melanoma = system: MALME-3M melanoma
# MCF7 breast = system: MCF7 breast
# MDA-MB-231 breast = system: MDA-MB-231 breast
# MDA-MB-435 melanoma = system: MDA-MB-435 melanoma
# MDA-MB-468 breast = system: MDA-MB-468 breast
# MOLT-4 leukemia = system: MOLT-4 leukemia
# NCI-H226 lung = system: NCI-H226 lung
# NCI-H23 lung = system: NCI-H23 lung
# NCI-H322M lung = system: NCI-H322M lung
# NCI-H460 NSCLC = system: NCI-H460 NSCLC
# NCI-H522 lung = system: NCI-H522 lung
# NCI/ADR-RES ovarian = system: NCI/ADR-RES ovarian
# OVCAR-3 ovarian = system: OVCAR-3 ovarian
# OVCAR-4 ovarian = system: OVCAR-4 ovarian
# OVCAR-5 ovarian = system: OVCAR-5 ovarian
# OVCAR-8 ovarian = system: OVCAR-8 ovarian
# RPMI-8226 leukemia = system: RPMI-8226 leukemia
# RXF 393 renal = system: RXF 393 renal
# SF-268 CNS = system: SF-268 CNS
# SF-539 CNS = system: SF-539 CNS
# SK-MEL-28 melanoma = system: SK-MEL-28 melanoma
# SK-MEL-5 melanoma = system: SK-MEL-5 melanoma
# SK-OV-3 ovarian = system: SK-OV-3 ovarian
# SN12C renal = system: SN12C renal
# SNB-19 CNS = system: SNB-19 CNS
# SNB-75 CNS = system: SNB-75 CNS
# SW-620 colon = system: SW-620 colon
# T-47D breast = system: T-47D breast
# TK-10 renal = system: TK-10 renal
# U251 glioblastoma = system: U251 glioblastoma
# UACC-257 melanoma = system: UACC-257 melanoma
# UACC-62 melanoma = system: UACC-62 melanoma
# UO-31 renal = system: UO-31 renal
structure (smiles),measurement,setting,value
CCn1c(CO)nn(-c2cc(O[C@@H](C)C(F)(F)F)c(C(=O)Nc3c(F)cccc3Cl)cc2F)c1=O,GI50,786-0 renal,< 0.01 µM
same,TGI,786-0 renal,32.5 µM
same,GI50,A498 renal,13.5 µM
same,TGI,A498 renal,> 100 µM
same,GI50,A549 NSCLC,< 0.01 µM
same,TGI,A549 NSCLC,> 100 µM
same,GI50,ACHN renal,< 0.01 µM
same,TGI,ACHN renal,> 100 µM
same,GI50,BT-549 breast,< 0.01 µM
same,TGI,BT-549 breast,> 100 µM
same,GI50,CAKI-1 renal,< 0.01 µM
same,TGI,CAKI-1 renal,> 100 µM
same,GI50,CCRF-CEM leukemia,< 0.01 µM
same,TGI,CCRF-CEM leukemia,43 µM
same,GI50,COLO 205 colon,< 0.01 µM
same,TGI,COLO 205 colon,> 100 µM
same,GI50,DU-145 prostate,< 0.01 µM
same,TGI,DU-145 prostate,> 100 µM
same,GI50,EKVX NSCLC,63.4 µM
same,TGI,EKVX NSCLC,> 100 µM
same,GI50,HCC-2998 colon,18.6 µM
same,TGI,HCC-2998 colon,> 100 µM
same,GI50,HCT-116 colon,< 0.01 µM
same,TGI,HCT-116 colon,> 100 µM
same,GI50,HCT-15 colon,< 0.01 µM
same,TGI,HCT-15 colon,> 100 µM
same,GI50,HL-60(TB) leukemia,< 0.01 µM
same,TGI,HL-60(TB) leukemia,< 0.01 µM
same,GI50,HOP-62 NSCLC,6.85 µM
same,TGI,HOP-62 NSCLC,> 100 µM
same,GI50,HOP-92 NSCLC,< 0.01 µM
same,TGI,HOP-92 NSCLC,> 100 µM
same,GI50,HS 578T breast,15.2 µM
same,TGI,HS 578T breast,> 100 µM
same,GI50,HT29 colon,< 0.01 µM
same,TGI,HT29 colon,62.6 µM
same,GI50,IGROV1 ovarian,2.22 µM
same,TGI,IGROV1 ovarian,> 100 µM
same,GI50,K-562 leukemia,< 0.01 µM
same,TGI,K-562 leukemia,> 100 µM
same,GI50,KM12 colon,< 0.01 µM
same,TGI,KM12 colon,> 100 µM
same,GI50,LOX IMVI melanoma,< 0.01 µM
same,TGI,LOX IMVI melanoma,< 0.01 µM
same,GI50,M14 melanoma,< 0.01 µM
same,TGI,M14 melanoma,62.7 µM
same,GI50,MALME-3M melanoma,< 0.01 µM
same,TGI,MALME-3M melanoma,> 100 µM
same,GI50,MCF7 breast,< 0.01 µM
same,TGI,MCF7 breast,91.3 µM
same,GI50,MDA-MB-231 breast,< 0.01 µM
same,TGI,MDA-MB-231 breast,> 100 µM
same,GI50,MDA-MB-435 melanoma,< 0.01 µM
same,TGI,MDA-MB-435 melanoma,> 100 µM
same,GI50,MDA-MB-468 breast,< 0.01 µM
same,TGI,MDA-MB-468 breast,22.6 µM
same,GI50,MOLT-4 leukemia,< 0.01 µM
same,TGI,MOLT-4 leukemia,< 0.01 µM
same,GI50,NCI-H226 lung,17.6 µM
same,TGI,NCI-H226 lung,> 100 µM
same,GI50,NCI-H23 lung,< 0.01 µM
same,TGI,NCI-H23 lung,> 100 µM
same,GI50,NCI-H322M lung,9.92 µM
same,TGI,NCI-H322M lung,> 100 µM
same,GI50,NCI-H460 NSCLC,< 0.01 µM
same,TGI,NCI-H460 NSCLC,14.7 µM
same,GI50,NCI-H522 lung,< 0.01 µM
same,TGI,NCI-H522 lung,84.5 µM
same,GI50,NCI/ADR-RES ovarian,< 0.01 µM
same,TGI,NCI/ADR-RES ovarian,88 µM
same,GI50,OVCAR-3 ovarian,20.8 µM
same,TGI,OVCAR-3 ovarian,> 100 µM
same,GI50,OVCAR-4 ovarian,54.9 µM
same,TGI,OVCAR-4 ovarian,> 100 µM
same,GI50,OVCAR-5 ovarian,< 0.01 µM
same,TGI,OVCAR-5 ovarian,> 100 µM
same,GI50,OVCAR-8 ovarian,< 0.01 µM
same,TGI,OVCAR-8 ovarian,> 100 µM
same,GI50,RPMI-8226 leukemia,< 0.01 µM
same,TGI,RPMI-8226 leukemia,< 0.01 µM
same,GI50,RXF 393 renal,< 0.01 µM
same,TGI,RXF 393 renal,12.3 µM
same,GI50,SF-268 CNS,< 0.01 µM
same,TGI,SF-268 CNS,< 0.01 µM
same,GI50,SF-539 CNS,16.1 µM
same,TGI,SF-539 CNS,> 100 µM
same,GI50,SK-MEL-28 melanoma,< 0.01 µM
same,TGI,SK-MEL-28 melanoma,19.9 µM
same,GI50,SK-MEL-5 melanoma,< 0.01 µM
same,TGI,SK-MEL-5 melanoma,18.8 µM
same,GI50,SK-OV-3 ovarian,22.7 µM
same,TGI,SK-OV-3 ovarian,> 100 µM
same,GI50,SN12C renal,< 0.01 µM
same,TGI,SN12C renal,> 100 µM
same,GI50,SNB-19 CNS,17.5 µM
same,TGI,SNB-19 CNS,> 100 µM
same,GI50,SNB-75 CNS,13.4 µM
same,TGI,SNB-75 CNS,79.2 µM
same,GI50,SW-620 colon,< 0.01 µM
same,TGI,SW-620 colon,20.4 µM
same,GI50,T-47D breast,7.65 µM
same,TGI,T-47D breast,58.2 µM
same,GI50,TK-10 renal,< 0.01 µM
same,TGI,TK-10 renal,> 100 µM
same,GI50,U251 glioblastoma,< 0.01 µM
same,TGI,U251 glioblastoma,30.7 µM
same,GI50,UACC-257 melanoma,11.2 µM
same,TGI,UACC-257 melanoma,> 100 µM
same,GI50,UACC-62 melanoma,< 0.01 µM
same,TGI,UACC-62 melanoma,70.2 µM
same,GI50,UO-31 renal,< 0.01 µM
same,TGI,UO-31 renal,28.8 µM
